According to US20250360091A1, “COMBINATION OF SGLT2 INHIBITOR AND MENTHOL AND USE THEREOF IN TREATMENT OF HEART DISEASE” (EAST CHINA UNIVERSITY OF SCIENCE AND TECHNOLOGY, priority 2023, published 2025):

Legend:
[1] = test system: ISO-induced heart failure model; assay: Isoproterenol-induced heart failure model (Example 3); type: in vivo, C57/6J male mice; conditions: for cardiac function (ejection fraction, fractional shortening, echocardiography): gavage daily, day 15
Method: Isoproterenol hydrochloride is a commonly used inducer for establishing a heart failure model. Subcutaneous injection of isoproterenol hydrochloride can accelerate the heart rate of mice, cause the myocardium to continue to contract strongly, increase myocardial oxygen consumption, increase the heart load, and eventually cause heart failure.
Preferably, 50 µM of empagliflozin and 200 μM of menthol were converted into a mass ratio of about 1:1.5 according to the molar molecular weight. The dose of empagliflozin was set at 10 mg/kg and 30 mg/kg, and the pharmaceutical composition was set as the 10 mg/kg empagliflozin+15 mg/kg menthol group. In addition, in order to determine the extent to which the combination of menthol can reduce the effective dose of empagliflozin, a combination of menthol at a dose of 15 mg/kg and empagliflozin at a dose of 5 mg/kg was administered, resulting in the empagliflozin 5 mg/kg+menthol 15 mg/kg group.
Specifically, C57/6J male mice with an average body weight of about 21-22 g were divided into 7 groups (sham group, ISO group, empagliflozin 30 mg/kg group (E30), empagliflozin 10 mg/kg group (E10), menthol 15 mg/kg group (M15), empagliflozin 10 mg/kg+menthol 15 mg/kg group (E10+M15), empagliflozin 5 mg/kg+menthol 15 mg/kg group (E5+M15)), with 8 mice in each group. The mice were given drugs by gavage every morning, and the solvent was DMSO (the content was less than 5%, and menthol and empagliflozin solution were mixed in equal volumes and then gavaged into the mice). The sham group and ISO group were gavaged with an equal amount of drinking water every morning.
Isoproterenol hydrochloride was injected subcutaneously twice a day, in the morning and evening, with a dose of 40 mg/kg on days 1-2, 20 mg/kg on days 3-7, and 10 mg/kg on days 8-14. […]
On the 15th day, the Visual-Sonics Vevo 3100 small animal high-resolution micro-ultrasound imaging system was used to evaluate the cardiac structure and function of the experimental mice in each group. Three cardiac cycles were taken to measure the systolic interventricular septum thickness (IVSs), diastolic interventricular septum thickness (IVSd), left ventricular systolic inner diameter (LVIDs), left ventricular diastolic inner diameter (LVIDd), systolic left ventricular posterior wall thickness (LVPWs), and diastolic left ventricular posterior wall thickness (LVPWd), and the ejection fraction (EF, %) and fractional shortening (FS, %) were calculated. […] ImageJ was used to quantify the fibrosis area and calculate the degree of cardiac fibrosis. Graph Pad software was used for data processing and significant differences were calculated (OneWayANOVA was used between multiple groups, and Student's t test was used between two groups).

[2] = test system: intracellular calcium concentration; assay: Intracellular calcium ion concentration with calcium probe Fluo4-AM (Example 5); type: cell-based; conditions: cariporide 100 μM, empagliflozin 50 μM, menthol 200 μM, combination 50 μM + 200 μM
Description: Intracellular calcium overload is an important factor in the transition of myocardial cells from reversible to irreversible damage. Intracellular calcium overload can be seen in a variety of cardiac pathological states, such as cardiac remodeling, myocardial ischemia-reperfusion injury, viral myocarditis, dilated cardiomyopathy, arrhythmias, and congestive heart failure. […] Empagliflozin can act on the sodium-hydrogen exchanger 1 (NHE1) on the myocardial cell membrane. When myocardial ischemia occurs, myocardial cell energy metabolism is impaired, and myocardial cells switch from fatty acid metabolism to sugar-free glycolysis, producing a large amount of lactic acid, which reduces the intracellular pH. As a regulatory protein for cell pH homeostasis, NHE1 can transport H^+ out of the cell by exchanging extracellular sodium ions, resulting in an increase in the intracellular sodium ion concentration. […] When mitochondrial function is impaired, the release of ROS increases, and ROS can further stimulate L-type calcium channels, promoting Ca^2+ influx, creating a vicious cycle. Empagliflozin inhibits the activity of NHE1 and can indirectly reduce the intracellular calcium ion concentration. Menthol, as an L-type calcium channel blocker, can synergistically reduce the intracellular calcium ion concentration with empagliflozin, playing a synergistic role. In order to verify this synergistic mechanism, the intracellular calcium ion concentration was detected using the calcium ion probe Fluo4-AM.
The experiment was divided into 5 groups, including control group (no drug group), cariporide group (positive control group, 100 μM), EMPA-50 (empagliflozin, 50 μM), M-200 (menthol, 200 μM), and E50+M200 (combination of 50 μM empagliflozin and 200 μM menthol).
• (1) Take an appropriate amount of Fluo4-AM stock solution (2 mM, BeyoTime, S1060) and dilute it to a 10 μM working solution with HBSS; • (2) For the cells to be tested (covering the bottom of the dish), remove the culture medium and wash with HBSS three times; • (3) Add 25 μL of Fluo4-AM working solution to each well, and then add 25 μL of compound solution to each well; • (4) Incubate at 37° C. for 30 min for fluorescent probe loading; • (5) Wash three times with HBSS, and add 100 μL of HBSS containing 10 mM CaCl2) to each well. Detect quantitatively the fluorescence of Fluo4-AM using a multifunctional fluorescence microplate reader (excitation wavelength 488 nm, emission wavelength 520 nm) to determine the changes in intracellular calcium ions.
Since empagliflozin indirectly affects intracellular calcium concentration by inhibiting NHE1, the intracellular environment was made acidic by using ammonium chloride solution to simulate the environment during myocardial ischemia, and the effect of the administered composition on intracellular calcium ions was tested. The NHE1 inhibitor cariporide was used as a positive control. The above step (3) was changed to add 25 μL of Fluo4-AM working solution to each well, mix the test compound with 80 mM NH4Cl solution at a 1:1 ratio, and then add 25 μL mixed solution of the compound and NH4Cl to each well (the final concentration of NH4Cl was 20 mM), and the remaining steps were the same as above.

[3] = NH4Cl present (20 mM, acidic intracellular conditions)

| Structure (SMILES) | cardiac function (ejection fraction, fractional shortening, echocardiography) ([1]; menthol 15 mg/kg) | effect on intracellular calcium concentration (Fluo4-AM fluorescence) [2, 3] | effect on intracellular calcium concentration (Fluo4-AM fluorescence) ([2]; absence of NH4Cl) | cardiac function (ejection fraction, fractional shortening, echocardiography) ([1]; empagliflozin 10 mg/kg) | myocardial fibrosis (Masson staining area) ([1]; empagliflozin 30 mg/kg) | cardiac function (ejection fraction, fractional shortening, echocardiography) ([1]; empagliflozin 30 mg/kg) |
| --- | --- | --- | --- | --- | --- | --- |
| CC(C)[C@@H]1CC[C@@H](C)C[C@H]1O [menthol, L-menthol] | slightly improved the cardiac function of mice with heart failure at a dose of 15 mg/kg, but there is no significant difference | weak effect of reducing intracellular calcium concentration | weak inhibitory effect | – | – | – |
| OC[C@H]1O[C@@H](c2ccc(Cl)c(Cc3ccc(O[C@H]4CCOC4)cc3)c2)[C@H](O)[C@@H](O)[C@@H]1O [empagliflozin] | – | significantly reduce intracellular calcium concentration | almost no effect | cannot significantly improve the cardiac function | significantly reduce myocardial fibrosis | can effectively improve |
